≈ marks a conversion by molar mass, not a printed value. Where a name gives a salt, the structure may show the parent alone.
Legend:
MDA-MB-231 [1] = experiment: Antiproliferative activity against human MDA-MB-231 cells assessed as reduction in cell viability at 10 uM after 24 hrs by CCK8 assay relative to control; format: functional; conditions: MDA-MB-231, 24 h
NCI-H226 [2] = experiment: Antiproliferative activity against human NCI-H226 cells assessed as reduction in cell viability at 10 uM after 24 hrs by CCK8 assay relative to control; format: functional; conditions: NCI-H226, 24 h
NCI-H226 [3] = experiment: Antiproliferative activity against human NCI-H226 cells assessed as reduction in cell viability after 24 hrs by CCK8 assay; format: functional, cell-based; conditions: NCI-H226, 24 h
MDA-MB-231 [4] = experiment: Antiproliferative activity against human MDA-MB-231 cells assessed as reduction in cell viability after 24 hrs by CCK8 assay; format: functional, cell-based; conditions: MDA-MB-231, 24 h
Clostridium perfringens = experiment: Antibacterial activity against Clostridium perfringens assessed as inhibition of bacterial growth after 24 hrs by microdilution method; format: functional
Bacillus subtilis = experiment: Antibacterial activity against Bacillus subtilis assessed as inhibition of bacterial growth after 24 hrs by microdilution method; format: functional
Pseudomonas viridiflava = experiment: Antibacterial activity against Pseudomonas viridiflava assessed as inhibition of bacterial growth after 24 hrs by microdilution method; format: functional
Staphylococcus aureus = experiment: Antibacterial activity against Staphylococcus aureus assessed as inhibition of bacterial growth after 24 hrs by microdilution method; format: functional
Escherichia coli = experiment: Antibacterial activity against Escherichia coli assessed as inhibition of bacterial growth after 24 hrs by microdilution method; format: functional

SMILES	inhibition at 10 µM (MDA-MB-231 [1]) [%]	inhibition at 10 µM (NCI-H226 [2]) [%]	IC50 (NCI-H226 [3]) [µM]	IC50 (MDA-MB-231 [4]) [µM]	also measured
CC[C@H](C)C(=O)[C@@H](C)C1=C(OC)C(=O)C2=C(O[C@]3(C)CC[C@H]4O[C@@H](C(C)(C)O)CC[C@]4(C)[C@H]3C2)C1=O	< 50	< 50			
CC[C@H](C)C(=O)[C@@H](C)C1=C(OC)C(=O)C2=C(O[C@]3(C)CC[C@H]4O[C@@H](C(C)(C)O)CC[C@]4(C)[C@H]3[C@@H]2O)C1=O			> 10	9.5	
C/C=C(\C)C(=O)[C@@H](C)c1cc(O)c2c(c1O)O[C@]1(C)CC[C@H]3O[C@@H](C(C)(C)O)CC[C@]3(C)[C@H]1[C@@H]2O			5.5	6.7	
CC[C@H](C)C(=O)[C@@H](C)c1cc(O)c2c(c1O)O[C@]1(C)CC[C@H]3O[C@@H](C(C)(C)O)CC[C@]3(C)[C@H]1[C@@H]2O	< 50	< 50			
CC[C@@H](C)C(=O)[C@@H](C)c1cc(O)c2c(c1O)O[C@]1(C)CC[C@H]3O[C@@H](C(C)(C)O)CC[C@]3(C)[C@H]1C2=O	< 50	< 50			
C/C=C(\C)[C@@H](OC(C)=O)[C@@H](C)C1=CC(=O)C2=C(O[C@]3(C)CC[C@H]4O[C@@H](C(C)(C)O)CC[C@]4(C)C3=C2)C1=O			> 10	5.6	
CCC(C)C(=O)c1coc2c3c(c(O)cc12)[C@@H](O)[C@@H]1[C@@]2(C)CC[C@H](C(C)(C)O)O[C@@H]2CC[C@@]1(C)O3 (stereo not given in full)	< 50	< 50			
CC[C@@H](C)[C@@H](OC(C)=O)[C@@H](C)c1cc(O)c2c(c1O)O[C@]1(C)CC[C@H]3O[C@@H](C(C)(C)O)CC[C@]3(C)[C@H]1C2=O	< 50	< 50			
C/C=C(\C)C(=O)[C@@H](C)C1=C(OC)C(=O)C2=C(O[C@]3(C)CC[C@H]4O[C@@H](C(C)(C)O)CC[C@]4(C)[C@H]3[C@@H]2O)C1=O			> 10	7.5	
CC[C@H](C)[C@@H](OC(C)=O)[C@@H](C)C1=C(N)C(=O)C2=C(O[C@]3(C)CC[C@H]4O[C@@H](C(C)(C)O)CC[C@]4(C)[C@H]3[C@@H]2O)C1=O	< 50	< 50			
C/C=C(\C)C(=O)[C@@H](C)C1=CC(=O)C2=C(O[C@]3(C)CC[C@H]4O[C@@H](C(C)(C)O)CC[C@]4(C)[C@H]3[C@@H]2O)C1=O			> 10	8.5	
CC[C@H](C)[C@@H](OC(C)=O)[C@@H](C)C1=CC(=O)C2=C(O[C@]3(C)CC[C@H]4O[C@@H](C(C)(C)O)CC[C@]4(C)[C@H]3[C@@H]2O)C1=O [COCHLIOQUINONE A]	< 50	< 50			
CC[C@H](C)C(=O)[C@@H](C)C1=CC(=O)C2=C(O[C@]3(C)CC[C@H]4O[C@@H](C(C)(C)O)CC[C@]4(C)[C@H]3C2)C1=O [COCHLIOQUINONE B]	< 50	< 50			MIC (Clostridium perfringens): 26 µM (≈ 12.3 µg/mL); MIC (Bacillus subtilis): 26 µM (≈ 12.3 µg/mL); MIC (Pseudomonas viridiflava): 26 µM (≈ 12.3 µg/mL)
CC[C@H](C)C(=O)[C@@H](C)C1=CC(=O)C2=C(O[C@]3(C)CC[C@H]4O[C@@H](C(C)(C)O)CC[C@]4(C)[C@H]3[C@@H]2O)C1=O [COCHLIOQUINONE C]	< 50	< 50			MIC (Clostridium perfringens): 26 µM (≈ 12.7 µg/mL); MIC (Bacillus subtilis): 26 µM (≈ 12.7 µg/mL); MIC (Pseudomonas viridiflava): 26 µM (≈ 12.7 µg/mL)
C/C=C(\C)C(=O)[C@@H](C)C1=CC(=O)C2=C(O[C@]3(C)CC[C@H]4O[C@@H](C(C)(C)O)CC[C@]4(C)[C@H]3C2)C1=O [COCHLIOQUINONE D]			6.9	7.1	
COc1cccc2c1C(=O)c1c(O)c3c(c(O)c1C2=O)C[C@@](O)(C(=O)CO)C[C@@H]3O[C@H]1C[C@H](N)[C@H](O)[C@H](C)O1 [DOXORUBICIN HYDROCHLORIDE]			0.3	0.3	
CC[C@H](C)[C@@H](OC(C)=O)[C@@H](C)c1cc(O)c2c(c1O)O[C@]1(C)CC[C@H]3O[C@@H](C(C)(C)O)CC[C@]3(C)[C@H]1C2=O [ISOCOCHLIOQUINONE A]	< 50	< 50			
CC[C@H](C)C(=O)[C@@H](C)c1cc(O)c2c(c1O)O[C@]1(C)CC[C@H]3O[C@@H](C(C)(C)O)CC[C@]3(C)[C@H]1C2=O [ISOCOCHLIOQUINONE C]	< 50	< 50			MIC (Clostridium perfringens): 26 µM (≈ 12.7 µg/mL); MIC (Bacillus subtilis): 26 µM (≈ 12.7 µg/mL); MIC (Pseudomonas viridiflava): 26 µM (≈ 12.7 µg/mL)
CN(C)[C@@H]1C(O)=C(C(N)=O)C(=O)[C@@]2(O)C(O)=C3C(=O)c4c(O)cccc4[C@@](C)(O)[C@H]3C[C@@H]12 [TETRACYCLINE]					MIC (Clostridium perfringens): 3.5 µM (≈ 1.56 µg/mL); MIC (Bacillus subtilis): 3.5 µM (≈ 1.56 µg/mL); MIC (Staphylococcus aureus): 3.5 µM (≈ 1.56 µg/mL); MIC (Escherichia coli): 3.5 µM (≈ 1.56 µg/mL); MIC (Pseudomonas viridiflava): 3.5 µM (≈ 1.56 µg/mL)

From ChEMBL document CHEMBL4373714, “Absolute Configuration and Biological Activities of Meroterpenoids from an Endophytic Fungus of Lycium barbarum” (J Nat Prod, 2019)
